Results as given in US8901120B2, “Substituted N-phenylpyrimidin-2-amine analogs as inhibitors of the Axl kinase” (University of Utah Research Foundation, priority 2011, dated 2014).
pIC50: −log10 of the molar value. Read-outs that look alike come from different tables or passages of the source.

How the values were obtained:
[1] = molecular target: T1, recombinant human Axl kinase (catalytic domain, amino acids 473-894) (Homo sapiens, UniProt P30530); assay: Axl kinase activity assay (TR-FRET, fluorescein poly-GT substrate); assay type: biochemical
T1 construct: catalytic domain, amino acids 473-894; purchased Invitrogen Corporation, Carlsbad, Calif
T1 sequence (P30530 473-894): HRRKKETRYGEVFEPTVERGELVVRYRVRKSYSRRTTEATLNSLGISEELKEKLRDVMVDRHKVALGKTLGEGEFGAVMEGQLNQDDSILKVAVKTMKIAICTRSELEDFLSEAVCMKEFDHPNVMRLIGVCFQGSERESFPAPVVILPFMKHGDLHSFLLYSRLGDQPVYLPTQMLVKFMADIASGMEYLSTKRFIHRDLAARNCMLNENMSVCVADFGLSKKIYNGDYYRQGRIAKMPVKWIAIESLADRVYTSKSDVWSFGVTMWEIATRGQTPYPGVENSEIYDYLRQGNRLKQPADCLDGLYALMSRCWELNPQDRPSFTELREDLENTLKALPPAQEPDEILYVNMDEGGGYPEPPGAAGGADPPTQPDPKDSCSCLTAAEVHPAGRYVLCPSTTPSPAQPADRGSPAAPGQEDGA
Description: Test compounds were diluted to desired concentrations in kinase reaction buffer (50 mM HEPES pH 7.5, 10 mM MgCl2, 1 mM EGTA, 2 mM DTT, and 0.01% v/v Tween-20) and were briefly incubated with Axl kinase (Invitrogen Corporation, Carlsbad, Calif.). The Axl kinase used was recombinant human Axl kinase (catalytic domain, amino acids 473-894) with a histidine tag. The reaction was initiated by the addition of ATP and fluorescein-labeled poly-GT substrate (poly Glu:Tyr, 4:1 polymer; Invitrogen). Concentration of the various components in the assay (10 μl reaction volume) were: 1% DMSO, 93 ng/ml Axl kinase, 20 μM ATP, and 200 nM fluorescein poly-GT substrate. Following addition of ATP and fluorescein poly-GT substrate, incubation was for 60 min at room temperature, the enzyme reaction is stopped by addition of 10 μl terbium-labeled anti-phosphotyrosine PY20 antibody in EDTA-containing buffer. Final concentration of EDTA and antibody after addition to the reaction is 10 mM and 2 nM, respectively. The terbium conjugated antibody generates a time-resolved FRET signal with the fluorescein molecule (bound to the poly-GT substrate) when the substrate is phosphorylated. After one hour incubation at room temperature, fluorescence was measured with excitation of 320 nm and dual emission of 495 and 520 urn on an EnVision microplate reader (PerkinElmer). Signal is expressed in terms of a TR-FRET ratio (fluorescence intensity at 520 nm to 495 nm).
(§1) IC50 values are determined using GraphPad Prism 5 software. The data were entered as an X-Y plot into the software as percent inhibition for each concentration of the drug. The concentration values of the drug were log transformed and the nonlinear regression was carried out using the “sigmoidal dose-response (variable slope)” option within the GraphPad software to model the data and calculate IC50 values.

[2] = tested on: PL45; assay: Cell viability assay (ATP-Lite), PL45; assay type: cell-based; conditions: Homo sapiens; PL45, 96 hours
Description: (§2) All cell lines were cultured in media as recommended by American Type Culture Collection (“ATCC”; supplemented with 10% fetal bovine serum (“FBS”) and 1% penicillin/streptomycin (100 IU/ml pencillin and 100 μg/ml streptomycin) at 37° C. and 5% CO2. The cell lines used in these studies included those indicated in Table II below.
(§3) For cell proliferation assays, 45 μl containing 1000 cells per well were seeded into solid white 384-well plates in appropriate cell growth media containing 10% FBS and incubated overnight at 37° C. and 5% CO2. The following day, test compounds were diluted in serum free growth media to 10× desired concentrations and 5 μl was added to each well. Combined compound and cells were incubated for 96 hours. Following incubation, 40 μl of ATP-Lite solution (PerkinElmer, Inc., Waltham, Massachussetts) was added to each well, incubated for an additional 10 minutes at room temperature and luminescence was measured on an EnVision microplate reader. Percent cell viability for test compounds was calculated by comparing treated wells to appropriate controls (e.g. vehicle treated) included on each plate.
as §1
(§4) The ability of compounds to inhibit the viability of cultured cells was determined using the cell viability assay described above. Activity data for representative compounds is shown below in Table IV for the compounds was tested in the indicated cell lines (PL-45, PANC-1, PSN-1, HepG2, and […]). IC50 values were determined as described above. If IC50 value is indicated as “n.d.”, it means that the compound was […] in the indicated cell line. The compound number corresponds to the numbering used in Table I.

[3] = tested on: PANC-1; assay: Cell viability assay (ATP-Lite), PANC-1; assay type: cell-based; conditions: Homo sapiens; PANC-1, 96 hours
Description: as §2, §3, §1, §4

[4] = tested on: PSN-1; assay: Cell viability assay (ATP-Lite), PSN-1; assay type: cell-based; conditions: Homo sapiens, PSN1; PSN-1, 96 hours
Description: as §2, §3, §1
The ability of compounds to inhibit the viability of cultured cells was determined using the cell viability assay described above. […] IC50 values were determined as described above. If IC50 value is indicated as “n.d.”, it means that the compound was […] in the indicated cell line. The compound number corresponds to the numbering used in Table I.

[5] = tested on: HepG2; assay: Cell viability assay (ATP-Lite), HepG2; assay type: cell-based; conditions: Homo sapiens; HepG2, 96 hours
Description: as §2, §3, §1, §4

[6] = tested on: A549; assay: Cell viability assay (ATP-Lite), A549; assay type: cell-based; conditions: Homo sapiens; A549, 96 hours
Description: as §2, §3, §1, §4

[7] = 20 μM ATP, 93 ng/ml Axl kinase, 60 min, read-out: IC50 (Axl kinase activity)

| pIC50 ([1]; tested in triplicate, FIG. 4A, read-out: IC50, inhibition of Axl activity) | pIC50 [1, 7] | pIC50 [3] | pIC50 [5] | pIC50 [6] | SMILES | pIC50 [2] | pIC50 [4] |
| --- | --- | --- | --- | --- | --- | --- | --- |
| ~7.70 |  |  |  |  | CN1CCN(Cc2ccc(Nc3ncc(Cl)c(Nc4ccccc4S(=O)(=O)N4CCCC4)n3)cc2)CC1 [5-chloro-N2-(4-((4-methylpiperazin-1-yl)methyl)phenyl)-N4-(2-(pyrrolidin-1-ylsulfonyl)phenyl)pyrimidine-2,4-diamine] |  |  |
|  | 7.70 | 7.47 | 6.92 | 8.70 | CN1CCN(Cc2ccc(Nc3ncc(Cl)c(Nc4ccccc4S(=O)(=O)N4CCCC4)n3)cc2)CC1 [Compound 1] | 7.33 | 8.70 |
|  | 7.49 | 6.52 | 6.52 | 8.52 | CN1CCN(Cc2ccc(Nc3ncc(Cl)c(Nc4ccccc4C(=O)NC4CC4)n3)cc2)CC1 [Compound 2] | 8.52 | 7.19 |
|  | 7.43 | 7.03 | 7.37 | 8.40 | CN1CCN(Cc2ccc(Nc3ncc(Cl)c(Nc4ccc(F)cc4S(=O)(=O)N4CCCC4)n3)cc2)CC1 [Compound 3] | 7.77 | 8.05 |
|  |  | 7.42 | 8.22 | 8.10 | CN1CCN(Cc2ccc(Nc3ncc(Cl)c(Nc4ccccc4S(=O)(=O)N(C)C)n3)cc2)CC1 [Compound 4] | 7.32 |  |
|  | 7.21 | 7.02 | 6.71 | 8.15 | CN1CCN(Cc2ccc(Nc3ncc(Cl)c(Nc4ccccc4C(=O)N4CCCC4)n3)cc2)CC1 [Compound 6] | 7.85 | 7.68 |
|  | 7.06 | 6.85 | 7.24 | 7.72 | CN1CCN(Cc2ccc(Nc3ncc(Cl)c(Nc4ccccc4C(=O)N(C)C)n3)cc2)CC1 [Compound 7] | 7.02 | 7.15 |
|  | 7.00 |  |  |  | CN1CCN(Cc2ccc(Nc3ncc(Cl)c(-c4ccc(F)cc4S(=O)(=O)N(C)C)n3)cc2)CC1 [Compound 8] |  |  |
|  | 6.92 | 6.32 | 6.28 | 7.11 | CN1CCN(Cc2ccc(Nc3ncc(Cl)c(-c4ccc(F)cc4S(=O)(=O)N4CCCC4)n3)cc2)CC1 [Compound 9] | 6.37 | 6.72 |
|  | 6.62 |  |  |  | CN1CCN(Cc2ccc(Nc3ncc(Cl)c(Nc4ccc(F)cc4S(=O)(=O)N4CCOCC4)n3)cc2)CC1 [Compound 10] |  |  |
|  | 6.54 | 5.24 |  |  | Cc1cnc(Nc2ccc(CN3CCN(C)CC3)cc2)nc1-c1ccc(C(C)(C)C#N)cc1 [Compound 11] | 5.09 | 5.59 |
|  | 6.35 | 5.12 |  |  | Cc1cnc(Nc2ccc(CN3CCN(C)CC3)cc2)nc1-c1cccc(Cl)c1 [Compound 13] | 5.32 | 5.58 |
|  | 6.14 | 5.11 |  |  | Cc1cnc(Nc2ccc(CN3CCN(C)CC3)cc2)nc1-c1ccc(F)c(Cl)c1 [Compound 14] | 4.84 | 5.37 |
|  | 5.97 |  |  |  | CN1CCN(Cc2ccc(Nc3ncc(Cl)c(Nc4ccc(Cl)cc4S(=O)(=O)N4CCCC4)n3)cc2)CC1 [Compound 15] |  |  |
|  | 5.94 |  |  |  | CN1CCN(Cc2ccc(Nc3ncc(F)c(-c4ccc(F)cc4S(=O)(=O)N4CCCC4)n3)cc2)CC1 [Compound 16] |  |  |
|  | 5.88 |  |  |  | CN1CCN(Cc2ccc(Nc3ncc(Cl)c(Nc4ccc(O)cc4S(=O)(=O)N4CCCC4)n3)cc2)CC1 [Compound 17] |  |  |
|  | 5.85 |  |  |  | Cc1cnc(Nc2ccc(CN3CCN(C)CC3)cc2)nc1Oc1ccc(F)c(Cl)c1 [Compound 18] |  |  |
|  | 5.79 |  |  |  | COc1cccc(-c2nc(Nc3ccc(CN4CCN(C)CC4)cc3)ncc2C)c1 [Compound 19] |  |  |
|  | 5.74 |  |  |  | Cc1ccc(-c2nc(Nc3ccc(CN4CCN(C)CC4)cc3)ncc2C)cc1C#N [Compound 20] |  |  |
|  | 5.73 |  |  |  | Cc1cnc(Nc2ccc(CN3CCN(C)CC3)cc2)nc1-c1ccc(F)cc1 [Compound 21] |  |  |
|  | 5.64 |  |  |  | CC(=O)Nc1cccc(-c2nc(Nc3ccc(CN4CCN(C)CC4)cc3)ncc2C)c1 [Compound 22] |  |  |
|  | 5.54 |  |  |  | Cc1cnc(Nc2ccc(CN3CCN(C)CC3)cc2)nc1-c1cccc(S(C)(=O)=O)c1 [Compound 23] |  |  |
|  | 5.53 |  |  |  | Cc1cnc(Nc2ccc(CN3CCN(C)CC3)cc2)nc1-c1ccc(F)cc1S(=O)(=O)N1CCCC1 [Compound 24] |  |  |
|  | 5.48 |  |  |  | Cc1cnc(Nc2ccc(CN3CCN(C)CC3)cc2)nc1-c1cccc(OC(F)(F)F)c1 [Compound 25] |  |  |
|  | 5.47 |  |  |  | CN1CCN(Cc2ccc(Nc3ncc(C4CC4)c(-c4ccc(F)c(Cl)c4)n3)cc2)CC1 [Compound 26] |  |  |
|  | 5.41 |  |  |  | CN1CCN(Cc2ccc(Nc3ncc(Cl)c(N(C)c4ccc(F)cc4S(=O)(=O)N4CCCC4)n3)cc2)CC1 [Compound 27] |  |  |
|  | 5.29 |  |  |  | Cc1cnc(Nc2ccc(CN3CCN(C)CC3)cc2)nc1-c1cc(Cl)cc(C(F)(F)F)c1 [Compound 28] |  |  |
|  | 4.24 |  |  |  | CN1CCN(Cc2ccc(Nc3nc(N)cc(-c4ccc(F)c(Cl)c4)n3)cc2)CC1 [Compound 29] |  |  |
|  | 4.20 |  |  |  | Cc1cnc(Nc2ccc(CN3CCN(C)CC3)cc2)nc1Nc1ccc(F)c(Cl)c1 [Compound 30] |  |  |
|  | < 4.00 |  |  |  | CN1CCN(Cc2ccc(Nc3ncc(C(F)(F)F)c(Nc4ccccc4C(=O)N(C)C)n3)cc2)CC1 [Compound 31] |  |  |

| SMILES | pIC50 ([1]; tested in triplicate, FIG. 4A, read-out: IC50, inhibition of Axl activity) | pIC50 [1, 7] | pIC50 [3] | pIC50 [5] | pIC50 [6] | pIC50 [2] | pIC50 [4] |
| --- | --- | --- | --- | --- | --- | --- | --- |
| CN1CCC(N(C)c2ccc(Nc3ncc(Cl)c(Nc4ccccc4S(=O)(=O)N(C)C)n3)cc2)CC1 [Compound 5] |  | 7.25 | 7.10 |  |  | 6.43 |  |
| Cc1cnc(Nc2ccc(N(C)C3CCN(C)CC3)cc2)nc1-c1ccc(F)c(Cl)c1 [Compound 12] |  | 6.38 | 4.96 |  |  | 4.86 | 5.17 |
